Data published in patent publication US20230174521A1, “NOVEL DIACYLGLYCERIDE O-ACYLTRANSFERASE 2 INHIBITORS” (Merck Sharp & Dohme LLC, priority 2020, published 2023).

Target: T1, human DGAT2 (hDGAT2) (Homo sapiens, UniProt Q96PD7)
T1 construct: made in house; host or cells: Sf-9 insect cells (baculovirus infection); membrane fraction
T1 sequence (Q96PD7 1-388): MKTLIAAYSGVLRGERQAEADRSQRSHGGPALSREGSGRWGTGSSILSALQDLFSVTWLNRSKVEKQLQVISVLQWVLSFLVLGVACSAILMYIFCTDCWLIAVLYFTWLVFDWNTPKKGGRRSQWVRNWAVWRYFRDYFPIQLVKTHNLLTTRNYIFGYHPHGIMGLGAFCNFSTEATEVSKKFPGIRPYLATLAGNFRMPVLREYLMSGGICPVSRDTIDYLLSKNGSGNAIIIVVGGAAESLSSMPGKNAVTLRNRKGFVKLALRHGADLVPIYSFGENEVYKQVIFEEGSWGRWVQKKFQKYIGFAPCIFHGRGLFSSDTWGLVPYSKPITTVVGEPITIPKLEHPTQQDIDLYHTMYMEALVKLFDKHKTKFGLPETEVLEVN
Experiment: DGAT2 enzymatic activity assay (LC/MS/MS detection of 13C18-triolein, Sf-9 membrane prep)
Type: biochemical
Settings: hDGAT2 Sf-9 membrane, 25 μM diolein, 5 μM 13C oleoyl-CoA, rt
Experimental: Sf-9 insect cells were maintained in Grace's insect cell culture medium with 10% heated-inactivated fetal bovine serum, 1% Pluronic F-68 and 0.14 μg/ml Kanamycine sulfate at 27° C. in a shaker incubator. After infection with untagged baculovirus expressing human DGAT2 (hDGAT2) at multiplicity of infection (MOI) 3 for 48 hours, cells were harvested. Cell pellets were suspended in buffer containing 10 mM Tris-HCl pH 7.5, 1 mM EDTA, 250 mM sucrose and Complete Protease Inhibitor Cocktail (Sigma Aldrich), and sonicated on ice. Cell debris were removed by centrifugation at 2000×g for 15 minutes. Membrane fractions were isolated by ultracentrifugation (100,000×g), resuspended in the same buffer, and frozen (−80° C.) for later use. The protein concentration was determined with the Pierce™ BCA Protein Assay Kit (Thermo Fisher Scientific). Expression of protein levels was analyzed by immunoblotting with rabbit anti-DGAT2 antibody (Abcam, ab102831) and donkey anti-rabbit IgG H&L Alexa Fluor® 647 (Abcam, ab150075) followed by detection using Typhoon FLA9000 (GE Healthcare).
LC/MS/MS analyses were performed using Thermal Fisher's LX4-TSQ Vantage system. This system consists of an Agilent binary high-performance liquid chromatography (HPLC) pumps and a TSQ Vantage triple quadrupole MS/MS instrument. For each sample, 2 μL samples from the top organic layer of in-plate liquid-liquid extraction were injected onto a Thermo Betabasic C4 column (2.1 mm×20 mm, 5 μm particle size). The samples were then eluted using the following conditions; mobile phase: Isopropanol: acetonitrile/10 mM ammonium formate=50/35/15 (v/v/v), flow rate: 0.8 mL/min, temperature: 25° C. Data was acquired in positive mode using a heated electrospray ionization (HESI) interface. The operational parameters for the TSQ Vantage MS/MS instrument were a spray voltage of 3000 V, capillary temperature of 280° C., vaporizer temperature 400° C., sheath gas 45 arbitrary unit, Aux gas 10 arbitrary units, S-lens 165 and collision gas 1.0 mTorr. […] (SRM) chromatograms of ^13C18-triolein (Q1: 920.8>Q3:621.3) and internal standard ^13C21-triolein (Q1: 923.8>Q3:617.3) were collected for 33 sec. The peak area was integrated by Xcalibur Quan software. The ratio between the ^13C18triolein generated in the reaction and spiked in internal standard ^13C21-triolein was used to generate percentage inhibition and IC50 values. Compound percentage inhibition was calculated by the following formula: Inhibition %=1−[(compound response−low control)/(high control−low control)]×100%. Potent compounds were titrated and IC50 were calculated by 4 parameter sigmoidal curve fitting formula.
DGAT2 activity was determined by measuring the amount of enzymatic product ^13C18-triolein (^13C-1,2,3-Tri(cis-9-octadecenoyl)glycerol) using the membrane prep mentioned above. The assay was carried out in ABgene 384-well assay plates in a final volume of 25 μL at rt. The assay mixture contained the following: assay buffer (100 mM Tris.Cl, pH 7.0, 20 mM MgCl2, 5% ethanol), 25 μM of diolein, 5 μM of ^13C oleoyl-CoA and 8 ng/μL of DGAT2 membrane.

Question: How did the IC50 turn out when `CC(C)c1nn(-c2cccc(C3CC3)c2)c2ncc(C(=O)NC3(C)CS(=O)(=O)C3)cc12` [Example 16, l-(3-cyclopropylphenyl)-3-isopropyl-N-(3-methyl-1,1-dioxidothietan-3-yl)-1H-pyrazolo[3,4-b]pyridine-5-carboxamide] was run?
Answer: 0.014 µM

Question: For `CC(C)(O)Cc1nn(-c2cccc(OC(F)F)c2)c2ncc(C(=O)NC3(C)CS(=O)(=O)C3)cc12` [Example 23], which IC50 is on record?
Answer: 0.0058 µM

Question: Which IC50 does the source give for `CC1(NC(=O)c2cnc3c(c2)c(C(C)(C)O)nn3-c2cc(OCC(F)F)ncc2F)CS(=O)(=O)C1` [Example 45, 1-(2-(2,2-difluoroethoxy)-5-fluoropyridin-4-yl)-3-(2-hydroxypropan-2-yl)-N-(3-methyl-1,1-dioxidothietan-3-yl)-1H-pyrazolo[3,4-b]pyridine-5-carboxamide] here?
Answer: 0.013 µM

Question: `Cc1ncc(OC(F)F)cc1-n1nc(CC(C)(C)O)c2cc(C(=O)NC3(C)CS(=O)(=O)C3)cnc21` [Example 25, l-(5-(difluoromethoxy)-2-methylpyridin-3-yl)-3-(2-hydroxy-2-methylpropyl)-N-(3-methyl-1,1-dioxidothietan-3-yl)-1H-pyrazolo[3,4-b]pyridine-5-carboxamide] was tested. Which IC50 did it give?
Answer: 0.705 µM

Question: `CC1(NC(=O)c2cnc3c(c2)c(C(C)(C)O)nn3-c2cc(OC(F)(F)F)ccc2F)CS(=O)(=O)C1` [Example 40, l-(2-fluoro-5-(trifluoromethoxy)phenyl)-3-(2-hydroxypropan-2-yl)-N-(3-methyl-1,1-dioxidothietan-3-yl)-1H-pyrazolo[3,4-b]pyridine-5-carboxamide] was tested. Which IC50 did it give?
Answer: 0.014 µM

Question: With `CC1(NC(=O)c2cnc3c(c2)c(C(C)(O)C(F)F)nn3-c2cccc(OC(F)F)c2)CS(=O)(=O)C1` (centres unmarked) [Example 43, 3-(1,1-difluoro-2-hydroxypropan-2-yl)-1-(3 - (difluoromethoxy)phenyl)-N-(3-methyl-1,1-dioxidothietan-3-yl)-1H-pyrazolo[3,4-b]pyridine-5-carboxamide] as the compound, how does the IC50 read?
Answer: 0.118 µM

Question: For `Cc1cc(C(=O)NC2(C)CS(=O)(=O)C2)cc2c(C(C)(C)O)nn(-c3cccc(OC(F)F)c3)c12` [Example 36, 1-(3-(difluoromethoxy)phenyl)-3-(2-hydroxypropan-2-yl)-7-methyl-N-(3-methyl-1,1-dioxidothietan-3-yl)-1H-indazole-5-carboxamide], which IC50 is on record?
Answer: 0.059 µM

Question: With `CC(C)c1nn(-c2cc(OCC(F)F)ncc2F)c2ncc(C(=O)NC3(C)CS(=O)(=O)C3)cc12` [Example 26, 1-(2-(2,2-difluoroethoxy)-5-fluoropyridin-4-yl)-3-isopropyl-N-(3-methyl-1,1-dioxidothietan-3-yl)-1H-pyrazolo[3,4-b]pyridine-5-carboxamide] as the compound, how does the IC50 read?
Answer: 0.0022 µM

Question: How did the IC50 turn out when `CC1(NC(=O)c2cnc3c(c2)c(C(C)(C)O)nn3-c2cc(OCC(F)F)ncc2F)CCS(=O)(=O)CC1` [Example 44, 1-(2-(2,2-difluoroethoxy)-5-fluoropyridin-4-yl)-3-(2-hydroxypropan-2-yl)-N-(4-methyl-1,1-dioxidotetrahydro-2H-thiopyran-4-yl)-1H-pyrazolo[3,4-b]pyridine-5-carboxamide] was run?
Answer: 0.0027 µM

Question: `CC1(NC(=O)c2ccc3c(c2)c(O)nn3-c2cccc(OC(F)F)c2)CS(=O)(=O)C1` [Example 56] was tested. Which IC50 did it give?
Answer: > 10 µM

Question: Which IC50 does the source give for `CC(O)c1nn(-c2cccc(OC(F)F)c2)c2ccc(C(=O)N[C@@]3(C)CCS(=O)(=O)C3)cc12` (stereo partly drawn) [Example 34, 1-(3-(difluoromethoxy)phenyl)-3-(l-hydroxyethyl)-N-((S)-3-methyl-1,1-dioxidotetrahydrothiophen-3-yl)-1H-indazole-5-carboxamide] here?
Answer: 0.083 µM
